Entries after “also recorded” stand apart in the source; their conditions may differ. Structures can show the parent of a compound that is named as a salt.
Columns and labels:
[1] = test system: Monocrotaline-Induced Heart Failure Model (Heart Failure induced by Pulmonary Hypertension); test: Efficacy in Monocrotaline-induced heart failure model (heart failure induced by pulmonary hypertension); format: in vivo, SD-SLC male rats
Experimental: Efficacy in Monocrotaline-Induced Heart Failure Model (A Model of Heart Failure induced by Pulmonary Hypertension)
SD-SLC male rats (body weight: 160 to 190 g) were used. Monocrotaline was dissolved in 1N hydrochloric acid, and the solution was adjusted to a pH of 7.4 with a 1N sodium hydroxide aqueous solution. Distilled water was added thereto to make a 40 mg/ml solution. The solution was subcutaneously administered to the rats at a dose of 40 mg/kg to prepare right ventricular insufficient rats.
Another group of rats was subcutaneously administered with 1 ml/kg of physiological saline only and served as intact control.
Compound A was dissolved in distilled water. Six hours from the administration of Monocrotaline, the solution was orally administered to the test animals at a single daily dose of 10 mg/kg for consecutive 1 month (6 days per week). As a control group, the right ventricular insufficient rats orally received 5 ml/kg of distilled water only.
On the next day of the final administration of Compound A, a catheter was inserted into the right ventricle under anesthesia with pentobarbital (50 mg/kg, i.p.), and the right ventricular systolic pressure was measured. Thereafter, the heart was excised, divided into the left ventricle (including the septum) and the right ventricle, and the wet weight of each ventricle was determined. The results obtained are given in Table 3, as expressed as mean±S.E.

[2] = test system: Heart Failure induced by Myocardial Infarction; test: Efficacy in heart failure induced by myocardial infarction (left coronary artery ligation), hemodynamic measurements and ventricle weight; format: in vivo, SD-SLC male rats
Experimental: Efficacy in Heart Failure induced by Myocardial Infarction SD-SLC male rats (body weight: 272 to 315 g) (purchased from Shizuoka Jikken Dobutsu Kyodo Kumiai) were used as test animals. Intercostal thoracotomy was made on the left chest of the rat anesthesized with pentobarbital (50 mg/kg, i.p.). The left coronary artery was then ligated at the position 2 to 3 mm away from its origin according to the method of Selye et al, Angiology, Vol. 11, 398 (1960). Immediately after confirming that the peripheral cardiac muscle of the open chest rat was involved in ischemia, the opening was closed, and the animal was fed on food and tap water ad lib. As a sham operation group, another group of rats received thoracotomy in the same manner as described above except for carrying out no ligation of the coronary artery. […] A control group orally received 5 ml/kg/day of ion-exchanged water only. On the next day of the final administration of Compound A, a catheter was inserted into the femoral artery and the left ventricle of the rat under anesthesia with Inactin (100 mg/kg, i.p.), and systemic mean blood pressure, maximum rate of increase of the intraventricular pressure (LV dp/dt max), contractile index (LV dp/dt max/p), left ventricular systolic pressure, left ventricular diastolic pressure and heart rate were measured. After completion of these measurements, the heart was excised and divided into the left ventricle (including the septum) and the right ventricle. The wet weight of each ventricle was measured.

[3] = test system: rats; test: Acute toxicity in rats (LD50), oral or intravenous; format: in vivo
Text: Acute toxicities of Compound A in rats through oral administration or intravenous injection were as follows.

[4] = 10 mg/kg p.o. daily, 6 times per week, 1 month, mean±S.E., n = 7
[5] = 10 mg/kg p.o. daily, 6 times per week, 1 month, mean±S.E., n = 7, ** P < 0.01 vs sham, # P < 0.05 vs control group
[6] = coronary artery ligation, 1 month
[7] = wet weight after 10 mg/kg p.o. daily, 1 month, mean±S.E., n = 7, * P < 0.05 vs control group

For `O=C(O)c1ccc2c(c1)CCC(Cn1ccnc1)C2` (stereo not shown) [Compound A, 6-(1-Imidazolylmethyl)-5,6,7,8-tetrahydronaphthalene-2-carboxylic acid hydrochloride hemihydrate], the “Right Ventricular Systolic Pressure” value ([1]; 10 mg/kg p.o. daily, 6 days per week, 1 month, mean±S.E., N = 7, * P < 0.05 vs intact control, # P < 0.05 vs control group) was 46.9 ± 4.9 mmHg, the “Right Ventricle Weight/Left Ventricle Weight” value ([1]; 10 mg/kg p.o. daily, 6 days per week, 1 month, mean±S.E., N = 7, ** P < 0.01 vs intact control group) was 0.41 ± 0.04 and the “Right ventricular hypertrophy / cardiac hypertrophy (result in words)” value ([1]; Monocrotaline, 1 month) was “showed a tendency to inhibit the right ventricular hypertrophy”. For the same compound, the “Right ventricular systolic pressure (result in words)” value ([1]; Monocrotaline, 1 month) was “significantly inhibited the increase in the right ventricular systolic pressure”, the “Improvement of heart failure induced by pulmonary hypertension (result in words)” value ([1]; long-term administration) was “exhibited improvements of heart failure induced by pulmonary hypertension” and the “Heart Rate” value [2, 4] was 399 ± 14 min⁻¹. For the same compound, the “Mean Blood Pressure” value [2, 4] was 132 ± 5 mmHg, the “Left Ventricular Systolic Pressure” value ([2]; 10 mg/kg p.o. daily, 6 times per week, 1 month, mean±S.E., n = 7, * P < 0.05 vs sham operation group) was 143 ± 6 mmHg and the “Contractile Index (LV dp/dt max/p)” value [2, 5] was 79 ± 5 s⁻¹. The “Left Ventricular Diastolic Pressure” value [2, 5] was 12.0 ± 3.2 cmH2 O, the “Contractile index (result in words)” value [2, 6] was “inhibition on reduction of contractile index” and the “Left ventricular diastolic pressure (result in words)” value [2, 6] was “inhibition on reduction of contractile index and on elevation of left ventricular diastolic pressure was observed”. For the same compound, the “Ventricle weight / cardiac hypertrophy (result in words)” value ([2]; coronary artery ligation, 1 month, hydrochloride hemihydrate) was “increase of the ventricle weight can be suppressed significantly; also recorded: inhibit cardiac hypertrophy”, the “Blood pressure (result in words)” value ([2]; long-term administration) was “without adversely affecting the blood pressure” and the “Cardiac contractility and pressure load to the heart (result in words)” value ([2]; long-term administration) was “improved reduction of cardiac contractility and relieved pressure load to the heart”. For the same compound, the “Weight of Ventricle, Right” value ([2]; wet weight after 10 mg/kg p.o. daily, 1 month, mean±S.E., n = 7) was 0.361 ± 0.028 g, the “Weight of Ventricle, Left” value [2, 7] was 0.861 ± 0.029 g and the “Weight of Ventricle, Total” value [2, 7] was 1.222 ± 0.052 g. It also gave an LD50 ([3]; female rats, i.v.) of 783 mg, an LD50 ([3]; female rats, p.o.) of 1994 mg and an LD50 ([3]; male rats, i.v.) of 807 mg. For the same compound, the LD50 ([3]; male rats, p.o.) was 2438 mg.

Reference: patent US4933349A, “Treating agent for heart failure” (Daiichi Seiyaku Co., Ltd., priority 1987, dated 1990)
